Experimental data taken from patent publication US20070207967A1, “Peptide Inhibitors of Matrix Metalloproteinase Activity” (CTT CANCER TARGETING TECHNOLOGIES OY, priority 2004, published 2007).
Values belong to the molecule of their own block, whether it stands above or below them.

Tests used:
HT1080 cells = experiment: Pericellular proteolysis (gelatinolysis) of HT1080 cells; format: cell-based, human; settings: HT1080, 48 h, PDBu, fibronectin/FITC-labelled gelatin coating
Protocol: Pericellular proteolysis. Microtiter wells were coated with a mixture of fibronectin (10 μg/ml) and FITC-labelled gelatin (100 μg/ml) followed by saturation with 1% BSA in PBS. HT1080 cells (50 000 in 100 μl 0.1% BSA/DMEM) were incubated in the presence of 20 nM PDBu (4β-phorbol-12,13-dibutyrate, SigmaAldrich) and the peptides or the MMP-2/MMP-9 selective inhibitor InhI (Calbiochem). As a control non-activated cells and medium without the cells were used. Gelatinolysis after 48 hours was measured as the increase of fluorescence from a 50 μl aliquot of the conditioned medium using Wallac Victor^2 reader.

uPAR [1] = experiment: uPAR cleavage on HT1080 cells; format: cell-based, human; settings: for Inhibition of uPAR cleavage: HT1080, InhI 20 μM, aprotinin 25 μg/ml, benzamidine 20 μM, 48 h
Source text: (§1) uPAR clevage. […] Chymotrypsin cleavage was done without aprotinin.

uPAR [2] = experiment: uPAR cleavage on THP-1 cells; format: cell-based, human; settings: InhI 20 μM, CTT 200 μM, aprotinin 25 μg/ml
Source text: as §1

pro-MMP-9 [3] = target: T1, pro-MMP-9 (Homo sapiens, UniProt P14780); experiment: Phage binding to pro-MMP-9 with competitors; settings: competitor peptides 20 μM, gelatin 2.5 μg/ml; for Binding of the CRV-phage to pro-MMP-9, competition: TIMP-1 2.5 μg/ml
T1 sequence (P14780 20-707 limits assumed): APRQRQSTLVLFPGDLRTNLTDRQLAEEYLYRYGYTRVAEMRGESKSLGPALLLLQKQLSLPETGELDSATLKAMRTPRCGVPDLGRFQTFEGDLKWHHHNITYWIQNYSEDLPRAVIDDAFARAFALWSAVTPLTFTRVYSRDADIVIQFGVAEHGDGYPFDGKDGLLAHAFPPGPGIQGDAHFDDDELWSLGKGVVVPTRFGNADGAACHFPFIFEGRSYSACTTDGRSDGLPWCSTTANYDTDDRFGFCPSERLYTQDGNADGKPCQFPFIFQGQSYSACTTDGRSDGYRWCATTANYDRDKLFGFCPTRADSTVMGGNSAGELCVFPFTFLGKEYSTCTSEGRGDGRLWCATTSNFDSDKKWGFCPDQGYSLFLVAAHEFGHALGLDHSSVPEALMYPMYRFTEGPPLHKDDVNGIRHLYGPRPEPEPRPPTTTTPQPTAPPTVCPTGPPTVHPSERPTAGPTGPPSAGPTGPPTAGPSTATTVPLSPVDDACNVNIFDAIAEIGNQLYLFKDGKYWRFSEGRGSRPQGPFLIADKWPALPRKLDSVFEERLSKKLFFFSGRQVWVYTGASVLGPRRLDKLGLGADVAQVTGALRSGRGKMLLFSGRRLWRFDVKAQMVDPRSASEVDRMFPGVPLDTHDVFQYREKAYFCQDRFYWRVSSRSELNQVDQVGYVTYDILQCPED
Protocol: (§2) Phage display. Phage display selections were made using random peptide libraries CX7-10C and X9-10 (13). Purified human pro-MMP-9 (9) or recombinant MMP-9 C domain (2 μg/ml) was immobilized on microtiter wells and the wells were blocked with BSA. The phage were added in 50 mM Hepes (pH 7.5)/5 mM CaCl2/1 μM ZnCl2/150 mM NaCl/2% BSA. After three rounds of selection the phage sequences were determined (14). The phage binding specificity was tested with pro-MMPs or the recombinant domains (20 ng/well). The phage (10^8 transducing units/well) were allowed to bind in the absence or presence of competitor peptides (20 μM), gelatin (2.5 μg/ml) or TIMP-1 (2.5 μg/ml, Calbiochem) followed by washings with PBS/0.05% Tween20 (PBST). The phage were detected with a peroxidase-conjugated anti-phage antibody (Amersham Biosciences).

CBD [4] = target: T2, CBD (Homo sapiens, UniProt P14780); experiment: Gelatin binding to immobilized CBD; settings: biotinylated gelatin
T2 construct: CBD (amino acids Gly^204-Gly^373) was amplified from MMP-9 cDNA; made in house; host or cells: E. coli
T2 sequence (P14780 223-392 limits assumed): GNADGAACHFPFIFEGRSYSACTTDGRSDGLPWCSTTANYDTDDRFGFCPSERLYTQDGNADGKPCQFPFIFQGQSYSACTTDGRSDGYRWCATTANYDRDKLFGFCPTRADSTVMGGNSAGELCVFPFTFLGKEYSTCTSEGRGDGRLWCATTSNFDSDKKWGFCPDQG
Protocol: (§3) Gelatin and CBD binding assays. Recombinant CBD or human plasma fibronectin (Calbiochem) (0.2 μg/ml in TBS) was immobilized in microtiter wells. The wells were saturated with 1% BSA-PBST. Biotinylated gelatin (0.2 μg/ml in 1% BSA-PBST) was added with or without peptides at the concentrations indicated or with an excess of unlabelled gelatin (10 μg/ml) and allowed to bind for 1 h. Bound gelatin was detected with streptavidin-peroxidase. CBD binding to immobilized fibronectin, the 110-kDa fragment of fibronectin (Upstate Biotechnology) or urea-denaturated human plasma vitronectin (17) (1 μg/well) was studied using biotinylated CBD (5 μg/ml) in 1% BSA-PBST in the presence or absence of 20 μM peptides.

fibronectin = experiment: Gelatin binding to fibronectin; set-up: species or system human; settings: data not shown
Sequence of fibronectin (P02751 306-608 limits assumed): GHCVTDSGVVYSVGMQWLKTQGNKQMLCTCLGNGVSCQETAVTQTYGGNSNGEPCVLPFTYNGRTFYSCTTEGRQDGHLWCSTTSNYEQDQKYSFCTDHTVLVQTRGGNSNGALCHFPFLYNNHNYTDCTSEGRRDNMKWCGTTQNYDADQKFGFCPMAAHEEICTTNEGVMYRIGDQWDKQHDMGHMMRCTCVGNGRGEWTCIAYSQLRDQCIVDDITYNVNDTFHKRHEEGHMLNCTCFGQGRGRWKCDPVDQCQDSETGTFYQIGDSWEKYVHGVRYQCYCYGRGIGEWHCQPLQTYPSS
Protocol: as §3

trypsin-activated MMP-9 = trypsin-activated MMP-9 (Homo sapiens, UniProt P14780); experiment: Gelatinase inhibition assay (gelatin degradation), MMP-9; format: biochemical; settings: biotinylated gelatin substrate
Sequence of trypsin-activated MMP-9 (P14780 107-707 limits assumed): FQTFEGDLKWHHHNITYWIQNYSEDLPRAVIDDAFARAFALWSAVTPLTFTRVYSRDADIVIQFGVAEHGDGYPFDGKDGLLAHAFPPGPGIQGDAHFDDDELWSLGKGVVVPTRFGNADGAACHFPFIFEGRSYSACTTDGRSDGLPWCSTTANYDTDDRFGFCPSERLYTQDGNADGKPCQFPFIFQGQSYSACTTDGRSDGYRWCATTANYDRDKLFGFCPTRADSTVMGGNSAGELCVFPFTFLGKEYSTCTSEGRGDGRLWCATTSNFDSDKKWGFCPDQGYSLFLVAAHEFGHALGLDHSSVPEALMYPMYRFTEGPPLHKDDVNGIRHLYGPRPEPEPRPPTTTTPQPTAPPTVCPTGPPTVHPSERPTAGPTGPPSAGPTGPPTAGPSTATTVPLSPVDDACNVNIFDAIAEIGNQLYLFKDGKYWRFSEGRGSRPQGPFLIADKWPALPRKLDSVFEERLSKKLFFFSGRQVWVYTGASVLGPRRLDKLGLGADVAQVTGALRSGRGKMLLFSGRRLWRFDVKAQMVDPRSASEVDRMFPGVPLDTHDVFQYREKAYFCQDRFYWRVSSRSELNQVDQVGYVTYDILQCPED
Protocol: (§4) Gelatinase inhibition assay. Inhibition of aminophenylmercuric acetate (APMA)-activated MMP-2 and trypsin-activated MMP-9 was performed using biotinylated gelatin as a substrate (15).

[5] = target: T3, aminophenylmercuric acetate (APMA)-activated MMP-2 (Homo sapiens, UniProt P08253); experiment: Gelatinase inhibition assay (gelatin degradation), MMP-2; format: biochemical; settings: biotinylated gelatin substrate
T3 sequence (P08253 110-660): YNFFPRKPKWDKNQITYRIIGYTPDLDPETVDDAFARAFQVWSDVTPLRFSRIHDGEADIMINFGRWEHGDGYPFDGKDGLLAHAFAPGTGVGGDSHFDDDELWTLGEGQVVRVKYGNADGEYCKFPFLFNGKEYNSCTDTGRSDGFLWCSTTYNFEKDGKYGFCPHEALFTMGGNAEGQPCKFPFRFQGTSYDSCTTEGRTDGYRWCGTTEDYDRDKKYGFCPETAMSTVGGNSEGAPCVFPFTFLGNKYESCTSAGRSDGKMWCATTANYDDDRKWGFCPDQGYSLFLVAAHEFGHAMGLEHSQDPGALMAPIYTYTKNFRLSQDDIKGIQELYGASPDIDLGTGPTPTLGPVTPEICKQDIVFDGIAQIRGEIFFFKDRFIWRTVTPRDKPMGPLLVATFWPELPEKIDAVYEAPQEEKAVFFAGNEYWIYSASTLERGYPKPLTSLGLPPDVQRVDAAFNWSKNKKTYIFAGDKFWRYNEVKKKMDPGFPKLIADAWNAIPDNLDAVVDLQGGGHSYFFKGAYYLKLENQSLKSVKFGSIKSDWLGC
Protocol: as §4

gelatinase [6] = experiment: Gelatin degradation assay, gelatinase not specified; format: biochemical
Protocol: as §4

CBD [7] = target: T2, CBD; experiment: CBD binding to fibronectin and vitronectin, solid phase; settings: 20 μM peptides, biotinylated CBD
Protocol: as §3

HT1080 fibrosarcoma = experiment: HT1080 invasion through matrigel; format: cell-based, human
Protocol: (§5) Cell migration and invasion. The cell migration assay was conducted using transwell migration chambers (8 μm pore size, Costar) in 10% serum-containing medium (2,14). Briefly, the membranes were coated on both sides with 40 μg/ml GST or with the β2 integrin ligand peptide […]-GST fusion (GST-LLG-C4) and blocked with complete medium. THP-1 cells (50 000/100 μl) were preincubated with the peptides for 1 h in serum-containing medium. The cells were allowed to migrate for 16 h and were then stained with crystal violet and counted (14). The HT1080 (20 000 cells/I100 μl) invasion assay was performed as the THP-1 migration, except that matrigel coated transwells (BD Biosciences) were used.

THP-1 monocytic cells = experiment: THP-1 cell migration on GST-LLG-C4; format: cell-based, human; settings: GST-LLG-C4 substratum, 16 h
Protocol: as §5

αM integrin I domain = αM integrin I domain (Homo sapiens, UniProt P11215); experiment: Pro-MMP-9 binding to αM integrin I domain
Sequence of αM integrin I domain (P11215 150-328 limits assumed): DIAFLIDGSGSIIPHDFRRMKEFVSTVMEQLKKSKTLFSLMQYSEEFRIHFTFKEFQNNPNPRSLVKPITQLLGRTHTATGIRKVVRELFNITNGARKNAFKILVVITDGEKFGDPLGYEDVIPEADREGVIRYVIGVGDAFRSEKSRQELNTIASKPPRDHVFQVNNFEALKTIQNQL
Protocol: Pro-MMP-9 and gelatin binding to leukocyte αM integrin. Pro-MMP-9 binding to the αM I domain in the presence of peptides was studied as described (12). Gelatin binding to the pro-MMP-^9/αMβ2 integrin complex was studied by immobilizing the integrin αMβ2 (12) or αIIbβ3 as a control (Enzyme Research Laboratories, South Bend, Ind.) (1 μg/well) in TBS/1 mM CaCl2/1 mM MgCl2 followed by saturation of the wells with 1% BSA in PB ST. Pro-MMP-9 (100 ng/well) was incubated for 2 h and the unbound pro-MMP-9 was washed away. Biotinylated gelatin (2.5 μg/ml) was allowed to bind for 30 min at room temperature. Bound gelatin was detected with streptavidin-peroxidase.

pro-MMP-9 [8] = target: T1, pro-MMP-9; experiment: Pro-MMP-9 activation in THP-1 cells, zymography; format: cell-based; settings: THP-1, pro-MMP-3 and plasminogen, peptides 200 μM
Protocol: Activation of MMP-9. THP-1 cells (40 000/100 μl) or confluent HT1080 cells were incubated for 16 h in the presence or absence of 2.5 μg/ml plasminogen, 0.5 μg/ml pro-MMP-3 (Oncogene Research Products), 40 nM PDBu, and the peptides at a 200 μM concentration unless otherwise indicated. Aliquots of the conditioned media were analyzed by gelatin zymography (9). […] The samples were analyzed by gelatin zymography.

gelatinase [9] = settings: 100 μM concentration; ref (15); cited from earlier work
MMP-9 C domain = target: T4, MMP-9 C domain (Homo sapiens, UniProt P14780); experiment: CRV phage binding to recombinant MMP-9 C domain; settings: TIMP-1 2.5 μg/ml
T4 construct: MMP-9 (Asp^494-Asp^688) were expressed as described (16); made in house; host or cells: E. coli (β5 fragment)
T4 sequence (P14780 513-707 limits assumed): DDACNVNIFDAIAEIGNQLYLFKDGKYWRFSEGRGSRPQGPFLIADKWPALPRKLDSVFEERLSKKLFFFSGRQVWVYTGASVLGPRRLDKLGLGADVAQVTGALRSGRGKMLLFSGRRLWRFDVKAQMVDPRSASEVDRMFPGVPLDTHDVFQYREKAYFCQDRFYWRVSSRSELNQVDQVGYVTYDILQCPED
Protocol: as §2
Expression of the MMP and integrin domains. CBD (amino acids Gly^204-Gly^373) was amplified from MMP-9 cDNA with the oligonucleotides 5′-[…]-3′ and 5′-[…]-3′ incorporating NdeI and PstI restriction sites. The PCR product was ligated into pTWIN vector (New England Biolabs). CBD was expressed in E. coli and purified using gelatin-sepharose (Amersham Biosciences). For some experiments, CBD was biotinylated with sulfo-NHS-LC-biotin (Pierce). The C-terminal domains of MMP-2 (Glu^438-Cys^631) and MMP-9 (Asp^494-Asp^688) were expressed as described (16). […]

CBD [10] = target: T2, CBD; experiment: Pepspot membrane assay of CBD binding; settings: 0.2 μg/ml biotinylated CBD
Protocol: Peptide synthesis. The phage peptides were initially prepared in a recombinant form using intein fusions (12,15). Chemical peptide synthesis was done using Fmoc-chemistry and the purity and integrity of the peptides was verified by mass spectroscopy (15). The peptides were dissolved in water, except the CRV and DDGW peptides, which were dissolved in 50 mM NaOH at a 10 mM concentration and then diluted into PBS to neutralize the pH. The […] and […] peptides were synthesized on a cellulose membrane. The membrane was blocked with 3% BSA in TBS/0.05% Tween 20, and incubated with 0.2 μg/ml biotinylated CBD. Bound CBD was detected using peroxidase-conjugated streptavidin (1:10 000 dilution, Pierce) and chemiluminescence detection.

Molecule: O=C(O)[C@@H](Cc1ccccc1)NS(=O)(=O)c1ccc(-c2ccccc2)cc1 [InhI]
Inhibition of pericellular gelatinolysis (HT1080 cells): inhibited | Level of cell surface-bound uPA (uPAR [1]; HT1080, InhI 20 μM): reduced | Inhibition of uPAR cleavage (uPAR [1]): inhibited uPAR cleavage | Inhibition of uPAR cleavage (uPAR [2]): inhibited

Molecule: N=C(N)c1ccccc1 [benzamidine]
Inhibition of uPAR cleavage (uPAR [1]): not

Binding of PPC peptide-bearing phage to pro-MMP-9, competition (pro-MMP-9 [3]): inhibited | Binding of the CRV-phage to pro-MMP-9, competition (pro-MMP-9 [3]): not | Effect on gelatin binding to fibronectin (fibronectin): no effect | Inhibition of MMP-9 activity in gelatin degradation assay (trypsin-activated MMP-9): inhibited | Inhibition of MMP-2 activity in gelatin degradation assay [5]: inhibited | Gelatinase inhibitor strength relative to CTT (gelatinase [6]): weaker gelatinase inhibitor than CTT | Inhibition of CBD binding to fibronectin and vitronectin (CBD [7]): inhibited | IC50 (HT1080 fibrosarcoma; matrigel, read-out: Concentration required to achieve the same efficacy (50% inhibition of HT1080 invasion)): 500 µM | Effect on interaction of MMP-9 with the leukocyte αM integrin I domain (αM integrin I domain): do not affect | Higher pro-MMP-9 binding to the I domain in the presence of peptide (αM integrin I domain; typically): 20-50% | Effect on pro-MMP-9 activation (pro-MMP-9 [8]): augmented
Molecule: ADGACGYGRFSPPCGAAG
Inhibition of gelatin binding to immobilized CBD (CBD [4]): inhibited gelatin binding to immobilized CBD in a dose dependent manner | Inhibition of THP-1 migration (THP-1 monocytic cells): inhibitory effect | Inhibition of pericellular gelatinolysis (HT1080 cells): inhibited

Inhibition of MMP-9 activity in gelatin degradation assay (trypsin-activated MMP-9): no effect | Inhibition of MMP-2 activity in gelatin degradation assay [5]: no effect
Molecule: ADGACPSYGPRFGCGAAG [scr. PPC, scrambled control peptide of PPC, reference compound]

Binding of PPC peptide-bearing phage to pro-MMP-9, competition (pro-MMP-9 [3]): not | Binding of the CRV-phage to pro-MMP-9, competition (pro-MMP-9 [3]): not | Inhibition of gelatin binding to immobilized CBD (CBD [4]): not
Molecule: CTTHWGFTLC [reference compound]
Inhibition of HT1080 invasion into matrigel (HT1080 fibrosarcoma; 200 μM concentration): 50% | Inhibition of THP-1 migration (THP-1 monocytic cells): inhibitory effect | Inhibition of pericellular gelatinolysis (HT1080 cells): inhibited | Inhibition of uPAR cleavage (uPAR [2]): inhibited | Inhibition of gelatin degradation (gelatinase [9]): completely inhibits

Binding of the CRV-phage to pro-MMP-9, competition (pro-MMP-9 [3]): could not compete | CRV phage binding to the MMP-9 C domain, competition (MMP-9 C domain): could not compete
Molecule: TIMP-1: tissue inhibitor of MMPs (Calbiochem)

Binding of biotinylated CBD to peptide on pepspot membrane (CBD [10]): bound
Molecule: TTPNSLLVSWQPPRARIT [PPC-like fibronectin peptide]

Molecule: aprotinin
Inhibition of uPAR cleavage (uPAR [1]): not | Inhibition of uPAR cleavage (uPAR [2]): not

Binding of PPC peptide-bearing phage to pro-MMP-9, competition (pro-MMP-9 [3]): inhibited | Binding of the CRV-phage to pro-MMP-9, competition (pro-MMP-9 [3]): not
Molecule: gelatin
